Residues, ends and D or L forms follow the SMILES beside them.
How the values were obtained:
[1] = molecular target: ComRSth WT (Streptococcus thermophilus, UniProt A0A1L1QK15); type: cell-based; conditions: for EC50: read-out: EC50 of PcomS activity (maximum specific luciferase activity), synthetic 8-aa peptide added to S. thermophilus ΔcomS reporter strain (PcomS-luxAB), Hill fit, mean ± SD of at least three independent replicates, SD; for effect of XIP-5 substitution on activation (titration of synthetic XIPSth variants): compared with XIPSth WT (A5), PcomS-luxAB
Method: (§1) Luciferase assays were performed as previously described ([19]). Overnight precultures were diluted to a final OD600 of 0.05 and culture samples incubated in a sterile covered white microplate with a transparent bottom (Greiner). Growth and luciferase activity (expressed in relative light units [RLUs]) of the cultures were monitored after addition or in absence of synthetic XIP peptide at 10 min intervals during at least 8 h in a multiwell plate reader (Hidex Sense, Hidex). When peptides were titrated, 0, 0.78, 1.56, 3.12, 6.25, 12.5, 25, 50, 100, and 1000 nM were added to the medium.

[2] = tested on: ComRSve WT; assay: PcomS-luxAB luciferase reporter assay, S. thermophilus strain with ComRSth replaced by ComRSve; type: cell-based, Streptococcus vestibularis; conditions: reporter strain carrying ComRSve; for decrease of activation compared with wild-type XIPSve: synthetic peptide
Method: as §1

[3] = molecular target: T1, ComRSth (Streptococcus thermophilus, UniProt A0A1L1QK15); assay: Single-molecule force spectroscopy (AFM); type: binding; conditions: polyG-linked peptide grafted on AFM tip, ComRSth on gold-coated coverslip
Method: Gold-coated glass coverslips and cantilevers (OMCL-TR4, Olympus Ltd; nominal spring constant ∼0.02 N m^−1) were immersed overnight in an ethanol solution containing 1 mM of 10% 16- […]/90% 1-mercapto-1-undecanol (Sigma), rinsed with ethanol and dried with N2. Substrates and cantilevers were then immersed for 30 min into a solution containing 10 mg ml^−1 N-hydroxysuccinimide (NHS) and 25 mg ml^−1 1-ethyl-3-(3-dimethylaminopropyl)-carbodiimide (EDC) (Sigma), rinsed with Ultrapure water (ELGA LabWater), incubated with 0.1 mg ml^−1 ComR or polyG-XIPSth, polyG-XIP-A5M, or polyG-XIPSve peptides for 1 h, rinsed further with PBS buffer, and then immediately used without dewetting.
For experiments of single-molecule force spectroscopy, ComR-functionalized surfaces and functionalized cantilevers with polyG-peptides were prepared as described above. Measurements were performed at room temperature in PBS with a Force Robot 300 AFM (JPK Instruments). Multiple (32 × 32) force–distance curves were recorded on areas of 500 by 500 nm^2 with an applied force of 250 pN, a constant approach, and retraction speed of 1000 nm s^−1. […] The spring constants of the cantilevers were measured by the thermal noise method ([50]). Data were analyzed with the data processing software from JPK Instruments.

[4] = molecular target: ComRSth-StreptagII protein (Streptococcus thermophilus ComR) (Streptococcus thermophilus)
[5] = molecular target: T1, ComRSth; assay: biochemical; conditions: SD
Method: In the case of competition assays, a fixed concentration of ComR (250 nM) and FITC N-labeled XIP peptide (30 nM) were incubated with twofold serial dilutions of unlabeled XIP variant (initial concentration of 5 μM). Plots were fitted by using GraphPad Prisma software to calculate IC50 values (half-maximal inhibitory peptide concentration).

[6] = tested on: ComR-F171A; assay: PcomS-luxAB luciferase reporter assay, ComR-F171A strain; type: cell-based, Streptococcus thermophilus; conditions: substitution added to XIP-L1A; ComR-F171A mutant strain
Method: Luciferase assays were performed as previously described ([19]). Overnight precultures were diluted to a final OD600 of 0.05 and culture samples incubated in a sterile covered white microplate with a transparent bottom (Greiner). Growth and luciferase activity (expressed in relative light units [RLUs]) of the cultures were monitored after addition or in absence of synthetic XIP peptide at 10 min intervals during at least 8 h in a multiwell plate reader (Hidex Sense, Hidex). When peptides were titrated, 0, 0.78, 1.56, 3.12, 6.25, 12.5, 25, 50, 100, and 1000 nM were added to the medium. In order to calculate EC50 values (peptide concentration for a half maximum response), maximum luciferase activity values were fitted to Hill equation: L=Lmax×[XIP]^n/(EC50)^n+[XIP]^n where L is the luciferase activity, [XIP] is the XIP concentration, and n is the Hill coefficient. Curves were fitted with the GraphPad Prism software v.9.0.1 (GraphPad Software, Inc).

[7] = molecular target: FITC N-labeled XIP-A5M peptide (9 aa) (Streptococcus thermophilus); assay: fluorescence polarisation; 30 nM FITC N-labeled 9-aa XIP peptide, threefold serial dilutions of purified ComR from 1 uM, 10 min at 30 °C, 96-well plates; EC50 by Hill fit
[8] = molecular target: T2, ComRSth-StreptagII protein (Streptococcus thermophilus ComR) (Streptococcus thermophilus); assay: FP; competition with FITC-XIP-A5M
T2 chain: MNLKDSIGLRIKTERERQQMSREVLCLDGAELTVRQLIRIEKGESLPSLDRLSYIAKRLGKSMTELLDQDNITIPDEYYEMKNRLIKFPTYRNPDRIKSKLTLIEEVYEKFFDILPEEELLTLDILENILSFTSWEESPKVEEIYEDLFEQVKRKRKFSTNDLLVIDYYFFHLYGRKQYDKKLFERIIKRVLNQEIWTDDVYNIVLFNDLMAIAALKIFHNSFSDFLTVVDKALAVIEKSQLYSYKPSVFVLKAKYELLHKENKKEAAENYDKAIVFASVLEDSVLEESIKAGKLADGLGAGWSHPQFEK

## CSCC[C@H](NC(=O)[C@H](Cc1ccccc1)NC(=O)[C@H](Cc1ccc(O)cc1)NC(=O)[C@@H]1CCCN1C(=O)[C@@H](N)C(C)C)C(=O)NCC(=O)N[C@@H](CS)C(=O)N[C@@H](CC(C)C)C(=O)O [XIP-L1V-A5M] (H-VPYFMGCL-OH)
[1]
  EC50: 1.36 ± 0.33 nM
[1]; synthetic peptide, ΔcomS reporter strain, PcomS as proxy
  EC50 compared with wild-type XIPSth: approximately fourfold lower

## LPYFTGCL [XIP-A5T]
[1]; ΔcomS reporter strain
  effect of XIP-5 substitution on activation (titration of synthetic XIPSth variants): neutral

## LPYFIGCL [XIP-A5I]
[1]; ΔcomS reporter strain
  effect of XIP-5 substitution on activation (titration of synthetic XIPSth variants): improved transcriptional activation but at a lower level than A5M

## PFFMIYY [XIPSve-ΔV1, 7-aa XIPSve variant PFFMIYY]
[2]; synthetic 7-aa peptide
  activation of ComRSve (in words): completely abolished

## VPFFMIYY [XIPSve]
[3]
  binding frequency / binding probability: ~2%
[3]; PBS, room temperature, about 1000 curves per surface
  median binding (adhesion) force: 58 pN

## VPFFAIYY [XIPSve-M5A]
[2]
  decrease of activation compared with wild-type XIPSve: ~40 fold

## XIP-L1A-A5M (synthetic octapeptide)
[4]
  P (comS)-luxAB luciferase reporter in S. thermophilus cells producing ComRSth WT; fold change in EC50 against the reference XIP-L1A (substitution A5M): 10.4 fold

## CC(C)C[C@H](NC(=O)[C@H](CS)NC(=O)CNC(=O)[C@H](C)NC(=O)[C@H](Cc1ccccc1)NC(=O)[C@H](Cc1ccc(O)cc1)NC(=O)[C@@H]1CCCN1C(=O)[C@@H](N)CC(C)C)C(=O)O [XIPSth, reference compound] (H-LPYFAGCL-OH)
[5]
  IC50: 254 ± 49.7 nM
[1]
  EC50: 4.4 ± 1.12 nM

## PYFAGCL [XIPSth-ΔL1]
[1]; synthetic 7-aa peptide, ComRSth WT reporter strain
  decrease of activity (fold less active): ~90 fold

## APFFMIYY [XIPSve-V1A]
[2]
  decrease of activation compared with wild-type XIPSve: ~130 fold

## APYFMGCL [XIPSth-L1A-A5M]
[6]
  increased activation (fold change in EC50) with XIP-L1A as reference: 1.3 fold
[1]; substitution added to XIP-L1A, ComRSth WT reporter strain
  increased activation (fold change in EC50) with XIP-L1A (A1–A5) as reference: 10.4 fold

## ComRSth-StreptagII protein (Streptococcus thermophilus ComR) (natural protein)
[7]
  fold lower EC50 than FITC-XIPSth: 2 fold

## PYFAGCL [XIPSth-ΔL1 (7 aa)]
[4]
  P (comS)-luxAB luciferase reporter in S. thermophilus cells producing ComRSth WT; activity against XIPSth WT (fold less active): 90

## LPYFAGCL [XIPSth (Streptococcus thermophilus XIP, synthetic octapeptide)]
[8]
  IC50: 254 nM
[4]
  P (comS)-luxAB luciferase reporter in S. thermophilus cells producing ComRSth WT; fold change in EC50 against the reference XIP-L1A (substitution A1L): 2.7 fold

Reference: paper PMC8605241, “Coevolution of the bacterial pheromone ComS and sensor ComR fine-tunes natural transformation in streptococci” (The Journal of Biological Chemistry, 2021)
